In patent publication US12208080B2, “Compositions and methods for modulation of extracellular vesicle release and treatment of neurological disorders” (GEORGE MASON RESEARCH FOUNDATION, INC., priority 2018, dated 2025):

Key:
[1] = system: RNA polymerase II (Pol II) loading; assay: Chromatin immunoprecipitation of Pol II, qPCR for TAR DNA; type: cell-based; details: U1; CBD 10 μM, Flavo 50 nM; 2-hour and 6-hour; FIG. 15C
Method: FIGS. 15A-15C are graphs and gels showing cannabidiols lower intracellular viral transcription and downstream viral products. U1 cells (1×10^6) were treated with a titration of CBD (1, 5, 10 μM) and THC (1, 5, 10 μg/mL) every day for 5 days. A) Intracellular RNA was isolated and analyzed through RT-qPCR for HIV-1 viral transcripts TAR and env. Each bar represents an average of three independent replicates. B) U1 cells (2×10^6) were treated with a titration of CBD (1, 5, 10 μM) every day for 5 days. Cells pellets were lysed, run through SDS-PAGE, and western blotted for (p-)/NF-κB, autophagosomal markers (p63, LC3), EV biogenesis marker VPS4, viral markers (gp120, Nef, p24), and Actin. C) U1 cells (5×10^6) were treated±CBD (10 μM) and Flavopiridol hydrochloride (50 nM; indicated as Flavo) and incubated for the following time points: 0 minutes, 2 hours and 6 hours. Cells were cross-linked with 1% formaldehyde solution and ChIP-ed for IgG and Pol II. ChIP DNA samples were analyzed via qPCR for TAR and env. Student's t-test was used for statistical analysis, where *p-value≤0.05; **p-value≤0.01, ***p-value≤0.001. […]
U1 monocytes were treated with CBD (10 μM) and Flavo (50 nM) for short periods (0, 2 and 6 hours) due to the fact that HIV-1 transcription activity is a rapid event that can be scored using chromatin immunoprecipitation (ChIP) assay for factor occupancy. […]

[2] = system: autophagy proteins (p62, LC3, ATG12-ATG5, ATG12, Beclin-1) in U1 cells; assay: Autophagy protein profile, CBD versus autophagy drugs, in U1 cells and their EVs (Western blot); type: cell-based; details: 5 days, Rapamycin 50 nM, INK128 50 nM
Method: FIGS. 18A-18B are gels showing CBD promotes autophagy turnover, resulting in a decrease in extracellular autophagosomal secretion. A) U1 cells (1×10^6) were treated±CBD (10 μM) for the following incubation periods: 0, 6, 24, and 48 hours. Cells were pelleted and lysed, exosomes from supernatants were enriched with NT80/82 beads overnight at 4° C. Samples were run through SDS-PAGE and western blotted for autophagy proteins (p62 and LC3), and Actin. B) U1 cells (1×10^6) were treated±10 μM CBD (every day), Rapamycin (50 nM), INK128 (50 nM), Bafilomycin A1 (50 nM), SB 203580 (20 μM), Wortmannin (2 nM) for a 5-day incubation period. Cells were pelleted and lysed, exosomes from supernatants were enriched using NT80/82 beads overnight at 4° C. Samples were run through SDS-PAGE and western blotted for autophagy proteins (p62, LC3, ATG12-ATG5, ATG12, Beclin-1), and Actin.
FIGS. 21A-21K are graphs showing normalized densitometry analysis of CBD and autophagy drug treatment on HIV-1 infected monocytes. Intracellular (A) p62, (B) LC3 I, (C) LC3 II, (D) ATG12-ATG5 complex, (E) ATG12, and (F) Beclin-1, and extracellular (G) p62, (H) LC3 I, (I) LC3 II, (J) ATG12-ATG5 complex, and (K) Beclin-1 densitometry counts were calculated from the Western blot data in FIG. 5B, normalized to respective intracellular and extracellular Actin levels, and plotted.
To determine the specific points at which CBD inhibits intracellular and extracellular autophagosome formation and secretion, we compared CBD treatment of U1 monocytes with known inhibitors of different points in the autophagy pathway. Cell viability was assessed among a panel of titrated autophagy drugs and the least toxic concentration per drug was utilized (FIG. 20). We treated U1 cells with CBD (10 μM) every day, Rapamycin (50 nM), INK128 (50 nM), Bafilomycin A1 (50 nM), SB 203580 (20 μM), or Wortmannin (2 nM) for 5 days. Our rationale for using these drugs was that they regulate different steps of autophagy including nucleation inhibition by inhibiting MTOR activity (Rapamycin, INK128) or by inhibiting pre-autophagosomal VPS34 complex activity (Wortmannin, SB 203580), and autophagosome-lysosome fusion inhibition (Bafilomycin A1). Therefore, a side-by-side comparison to CBD would potentially allow for a better definition of which step of autophagosome formation is primarily regulated by CBD. U1 cells were treated with the autophagy regulators and harvested along with their corresponding supernatants for further analysis using Western blot against p62, LC3, ATG12-ATG5 complex, free ATG12, Beclin-1, and Actin. Results in FIG. 18B (intracellular proteins, top panel) show autophagy protein profiles associated with the various autophagy regulators. […] The corresponding supernatants were enriched for EVs and also analyzed for the presence of autophagy proteins.

[3] = CBD 10 μM every day, FIG. 18B top panel
[4] = CBD 10 μM, Bafilomycin A1 50 nM, SB 203580 20 μM, Wortmannin 2 nM, lower panel

## C=C(C)[C@@H]1CCC(C)=C[C@H]1c1c(O)cc(CCCCC)cc1O [CBD, 2-[1R-3-methyl-6R-(1-methylethenyl)-2-cyclohexen-1-yl]-5-pentyl-1,3-benzenediol]
[1]
  Pol II-associated TAR DNA versus untreated: statistically significant decreases
[2]; [3]
  intracellular ATG12-ATG5: low levels
  intracellular Beclin-1: high levels
  intracellular LC3 I: low levels
[2]; [4]
  EV-associated LC3 I: reduction
  EV-associated p62: reduction
